Results taken from patent publication US20100278787A1, “CARDIOMYOCYTE-LIKE CELL CLUSTERS DERIVED FROM HBS CELLS” (Cellartis AB, priority 2007, published 2010).

Experiments:
[1] = system: contracting clusters of cells; test: Functional receptors: contractile activity of contracting areas after pharmacological agents (method of Norström et al. 2006); format: cell-based, human; details: agents administered to contracting areas; method and Table 1 of Norström et al. 2006
CMLC clusters = test: Transmembrane action potential (TAP) microelectrode recordings in beating CMLC; format: cell-based, human
Description: Transmembrane action potentials (TAP) were recorded by using a microelectrode filled with 3 M KCl (resistance 10 to 20 MΩ) connected via an Ag/AgCl junction to a high impedance amplifier (Intracellular Electrometer IE-210, Warner Instrument Corporation). Sharp microelectrodes were prepared using a glass, and a micromanipulator was used to lower the electrode into the bath and enter the cluster. The same impalement was kept for as long as possible. […] Steady-state recordings of action potentials at spontaneous frequency or during electric stimulation of 1-4 Hz were made. All calculations were made on the average of 10 (consecutive) action potentials. The bath was continuously perfused with Tyrode's solution consisting of (in mmol/L) 130 NaCl, 4 KCl, 0.5 MgSO4.7H20, 1.8 NaH2PO4xH2O, 18 NaHCO3, 5.5 glucose, 1.8 CaCl2 and kept at 37° C.
Electrical stimulation of the CMLC was done using field stimulation by means of a mobile electrode.
Change in APD was calculated and used to determine prolongation and assess triangularization.
To investigate the role of the funny current (If) in spontaneously contracting CMLC, 10 μM zatebradine was administered.

hBS cells (SA002) = test: Yield of beating CMLC from differentiating hBS cells, counted visually; format: cell-based, human; details: for Yield of beating CMLC compared to control cultures not receiving additional factors: 5 μM pre-plating in addition to Activin A 10 ng/ml and bFGF 12 ng/ml, day 7 after plating
Description: Spontaneously contracting cells were derived from undifferentiated hBS cells cultured on MEF cells (Heins et al 2004 Stem Cells). The cell lines used for this experiment could be the hBS cell line SA002, SA121, SA001, SA002.5, SA461 (Cellartis AB, Goteborg, Sweden, http://www.cellartis.com) and they can be propagated as described Heins et al. 2004. These cell lines are listed in the NIH stem cell registry and the UK Stem Cell bank. The hBS cells were detached from the feeder layer by incubation with collagenase IV (200 U/ml), for 10-15 minutes at 37° C. The cell suspension was transferred to a 15 ml tube, and after the cells had sedimented, the supernatant was removed. The colonies were resuspended in Knock Out DMEM supplemented with 20% FBS, 1% penicillin-streptomycin, 1% Glutamax, 0.5 mmol/l β-mercaptoethanol and 1% non-essential amino acids (all from Invitrogen, Carlsbad, Calif.) and dissociated mechanically into small aggregates of undifferentiated cells (0.2-0.4 mm) using a pipette. This cell suspension was distributed (200 μl/well) into a 96-well v-bottom plate (Corning Incorporated, NY, USA) at a concentration of approximately 4-6 colonies per well and centrifuged for 5 min at 400×g. The plate was then incubated at 37° C. for 3-8 days. The 3D structures that formed were then transferred to gelatine coated dishes containing culture medium (same as above). After a couple of days (normally 1-4) of culture, spontaneously contracting areas with cluster of contracting cells (CMLC) occurred and could be visually identified using a light microscope. Medium was changed every second to third day. New spontaneously beating areas continued to appear for up to 20 days post-plating. The clusters are isolated by mechanical dissection under visual inspection using a light microscope from the 3D-structures and subjected to further characterization. […] These were then manually isolated from the surrounding cells and plated onto laminin coated glass. After three days in culture, the clusters were fixed and stained for nuclei and the protein cardiac troponin 1, which is known to be specific for cardiac tissue. These clusters were then examined with confocal microscopy.
CMLC were derived from undifferentiated hBS cells (cell line SA002, LOTAL002, passage 21, 22, 44 and 51) essentially as described in Example 1. […]
The number of contracting CMLC was visually determined at day 6 or 7 after plating of formed 3D structures. […] The effect of the treatment on beating area characteristics was determined in terms of distribution in beating frequency, length, width, calculated area and structure in two experiments; one using plating medium with 20% FBS and one with plating medium containing 2% FBS. […]

[2] = system: spontaneously beating CMLC; test: Visually registered contraction rate of spontaneously beating CMLC; format: cell-based, human; details: 5 μM
Description: FIG. 28. The effect of Zatebradine on the beating frequency of contracting CMLC derived from hBS cells. […] The change in beating frequency was calculated by visually registering the contraction rate before and after Zatebradine administration. Values are expressed as beats per minute±SEM, n=32, ***=p<0.001. Statistical significance was calculated using paired t-test. […] The mRNA expression of HCN4 and Troponin T2 was measured using real-time RT quantitative PCR and related to the expression of the endogenous control CREBBP. Values are expressed as relative gene expression as compared to a reference sample set to 100% (n=32). Statistical analysis was performed using linear regression analysis.
CMLC were derived from undifferentiated hBS cells essentially as described in Example 1 using cell line SA002. Zatebradine is a substance known to block so called funny channels, e.i. hyperpolarization-activated, cyclic nucleotide-gated (HCN) channels 1-4, which are involved in the regulation of cardiomyocyte contraction and cardiac rate. In order to investigate the effect of Zatebradine on CMLC derived from hBS cells and to correlate this effect to age and gene expression, Zatebradine was administered at a concentration of 5 μM to 32 spontaneously beating clusters of different ages. […] Gene expression was quantified using real-time RT quantitative PCR. […]

`CNCC(O)c1ccc(O)c(O)c1` (centres unmarked) [Adrenaline] was tested. Which “Effect on contractile activity / contraction frequency” value [1] did it give?
Its value is “stimulatory effect is registered within minutes”.

`COc1ccc(CCN2CCC(Nc3nc4ccccc4n3Cc3ccc(F)cc3)CC2)cc1` [Astemizol] was tested. Which “Delayed repolarisation of the cardiac field potentials” value (hERG channel in CMLC; cumulative 0, 100 pM, 1 nM, 10 nM, 100 nM, 1000 nM) did it give?
Its value is “selective block and sustained prolongation of the repolarizing component at low nanomolar concentrations”.

And the “Delayed repolarization of the cardiac field potential” value (hERG channel in CMLC; hES-CMC cluster on MEA, cumulative 0, 1 nM, 10 nM, 100 nM, 1 μM, 10 μM, FIG. 30)?
The value was “selective block and sustained prolongation of the repolarizing component at nanomolar concentrations”.

`COc1cc(N)c(Cl)cc1C(=O)NC1CCN(CCCOc2ccc(F)cc2)CC1OC` (centres unmarked) [Cisapride] was tested. Which “Field action potential duration (indicator of QT prolongation)” value (hERG channel in CMLC; increasing drug concentrations, FIGS. 5c and 5d) did it give?
Its value is “dose dependent prolongation of the action potential”.

What does the source list for `Cc1cccc(CCN2CCC(C(=O)c3ccc(NS(C)(=O)=O)cc3)CC2)n1` [E-4031]?
Action potential prolongation (CMLC clusters; 0.5-1 μM E-4031, all CMLC phenotypes): concentration dependent action potential prolongation in all CMLC phenotypes; Average change in percent of APD90 (CMLC clusters; atrial-like CMLC, 0.5 μM E-4031, spontaneous f): 27.27 ± 7.61 (7) %; Average change in percent of APD90 (CMLC clusters; atrial-like CMLC, 1 μM E-4031, spontaneous f): 70.08 ± 25.91 (2) %; Average change in percent of APD90 (CMLC clusters; nodal-like CMLC, 0.5 μM E-4031, spontaneous f): 43.16 ± 21.00 (4) %; Average change in percent of APD90 (CMLC clusters; ventricle-like CMLC, 0.5 μM E-4031, 1 Hz): 34.89 ± 9.83 (4) %; Average change in percent of APD90 (CMLC clusters; ventricle-like CMLC, 0.5 μM E-4031, 2 Hz): 27.92 ± 9.23 (2) %; Average change in percent of APD90 (CMLC clusters; ventricle-like CMLC, 0.5 μM E-4031, spontaneous f): 16.67 ± 10.64 (5) %; Average change in percent of APD90 (CMLC clusters; ventricle-like CMLC, 1 μM E-4031, 1 Hz): 59.33 ± 31.28 (2) %; Average change in percent of APD90 (CMLC clusters; ventricle-like CMLC, 1 μM E-4031, 2 Hz): 38.14 ± 36.85 (3) %

For `NC[C@H](O)c1ccc(O)c(O)c1` [Noradrenaline], which “Effect on contractile activity / contraction frequency” value [1] is on record?
Its value is “stimulates contractile activity normally in a concentration-response manner”.

For `CNC[C@H](O)c1cccc(O)c1` [Phenylephrine], which “Effect on contractile activity / contraction frequency” value [1] is on record?
Its value is “stimulated in a dose-dependent manner”.

How did the “Yield of beating CMLC compared to control cultures not receiving additional factors” value (hBS cells (SA002)) turn out when `Cn1cc(C2=C(c3ccc(Cl)cc3Cl)C(=O)NC2=O)c2ccccc21` [SB 216763] was run?
Its value is about 3 times.

`Fc1ccc(-c2nc3n(c2-c2ccncc2)CCS3)cc1` [SKF-86002] was tested. Which “Yield of beating CMLC compared to control cultures not receiving additional factors” value (hBS cells (SA002)) did it give?
The value was about 3 times.

For `COc1ccc(CCN(C)CCCN2CCc3cc(OC)c(OC)cc3CC2=O)cc1OC` [Zatebradine], which “Beating of some clusters” value [2] is on record?
Its value is “completely blocked”.

What about the “Decrease of the beating frequency of CMLC, on average” value ([2]; 32 spontaneously beating clusters of different ages) of the same compound?
Its value is “about 50%”.

What about the “Effect on action potential duration” value (CMLC clusters; 10 μM Zatebradine, FIG. 21) of the same compound?
Its value is “increased duration”.

And the “Effect on beating frequency” value (CMLC clusters; 10 μM Zatebradine, FIG. 21)?
The value was “slowed beating frequency”.

How did the “Effect on contractile activity / contraction frequency” value [1] turn out when `CC(C)NCC(O)COc1ccc(CC(N)=O)cc1` (centres unmarked) [atenolol] was run?
Its value is “stimulatory effect is reduced within minutes”.

Which “Effect on contractile activity / contraction frequency” value [1] does the source give for `CC(CCc1ccccc1)NCC(O)c1ccc(O)c(C(N)=O)c1` (centres unmarked) [labetolol] here?
Its value is “reduction in the stimulation of contraction frequency exerted by adrenaline”.

How did the “Effect on contractile activity / contraction frequency” value [1] turn out when `CC(COc1ccccc1)N(CCCl)Cc1ccccc1` (centres unmarked) [phenoxybenzamine] was run?
Its value is “reduce the contraction frequency”.

What does the source list for “LIF: protein growth factor supplemented at 1000 U/ml post-plating”?
Yield of beating CMLC (hBS cells (SA002); Activin A and bFGF pre-plating, LIF 1000 U/ml for 4 days post-plating, counted day 7 and day 14): further increased the generation of beating CMLC; Improvement of yield compared to controls that only receive medium (hBS cells (SA002); medium containing Activin A and/or bFGF supplemented with LIF post-plating, FIG. 14): ~2 fold
